Reference: article PMC4907692, “Engineering vanilloid-sensitivity into the rat TRPV2 channel” (eLife, 2016)

Columns and labels:
TRPV1 S512F/M547L = molecular target: T1, TRPV1 S512F/M547L (Rattus norvegicus, UniProt O35433, M547L/S512F); assay: Two-electrode voltage-clamp in Xenopus oocytes, TRPV1 S512F/M547L; type: cell-based; conditions: 100 nM RTx
T1 construct: expressed in transfected cells; host or cells: Xenopus oocytes (cRNA injection)
From the text: (§1) To further investigate the putative vanilloid binding pocket in TRPV1, we inspected the cryo-EM structure of TRPV1, looking for residues that are located nearby to the putative RTx density (Figure 1B; regions/residues highlighted in yellow) and that differ between TRPV1 and TRPV2 channels (Figure 3—figure supplement 1; regions highlighted in magenta). […] To quantify the contribution of each of these residues to TRPV1 channel activation by RTx under our experimental conditions, we mutated each to the corresponding residue in TRPV2. We then expressed each construct in oocytes and used the two electrode voltage-clamp technique to study activation by RTx and by the non-specific TRPV channel activator 2-APB. We recorded time courses for channel activation by each agonist while stepping the membrane potential from −60 to +60 mV every 3 s from a holding potential of 0 mV using an external recording solution containing 100 mM KCl (internal K^+ concentration in a healthy oocyte is 100 mM) (Figure 3A, left). We also recorded current-voltage (I-V) relations by stepping over a wider range of voltages in the absence and presence of activators, or in the presence of ruthenium red (RR), a non-specific inhibitor of TRP channels (Figure 3A, right). […]

[1] = test system: TRPV2 triple mutants containing the F472S mutation; assay: Two-electrode voltage-clamp in Xenopus oocytes, TRPV2 triple mutants containing F472S; type: cell-based, rat; conditions: 100 nM RTx, +60 mV, normalized to 4 mM 2-APB
From the text: as §1

[2] = molecular target: T2, TRPV1 QM (S512F, M547L, T550L, E570Q) (Rattus norvegicus, UniProt O35433, E570Q/M547L/S512F/T550L); assay: Two-electrode voltage-clamp in Xenopus oocytes, TRPV1 QM; type: cell-based; conditions: 100 nM RTx
T2 construct: expressed in transfected cells; host or cells: Xenopus oocytes (cRNA injection)
T2 sequence (O35433 whole entry S512F/M547L/T550L/E570Q): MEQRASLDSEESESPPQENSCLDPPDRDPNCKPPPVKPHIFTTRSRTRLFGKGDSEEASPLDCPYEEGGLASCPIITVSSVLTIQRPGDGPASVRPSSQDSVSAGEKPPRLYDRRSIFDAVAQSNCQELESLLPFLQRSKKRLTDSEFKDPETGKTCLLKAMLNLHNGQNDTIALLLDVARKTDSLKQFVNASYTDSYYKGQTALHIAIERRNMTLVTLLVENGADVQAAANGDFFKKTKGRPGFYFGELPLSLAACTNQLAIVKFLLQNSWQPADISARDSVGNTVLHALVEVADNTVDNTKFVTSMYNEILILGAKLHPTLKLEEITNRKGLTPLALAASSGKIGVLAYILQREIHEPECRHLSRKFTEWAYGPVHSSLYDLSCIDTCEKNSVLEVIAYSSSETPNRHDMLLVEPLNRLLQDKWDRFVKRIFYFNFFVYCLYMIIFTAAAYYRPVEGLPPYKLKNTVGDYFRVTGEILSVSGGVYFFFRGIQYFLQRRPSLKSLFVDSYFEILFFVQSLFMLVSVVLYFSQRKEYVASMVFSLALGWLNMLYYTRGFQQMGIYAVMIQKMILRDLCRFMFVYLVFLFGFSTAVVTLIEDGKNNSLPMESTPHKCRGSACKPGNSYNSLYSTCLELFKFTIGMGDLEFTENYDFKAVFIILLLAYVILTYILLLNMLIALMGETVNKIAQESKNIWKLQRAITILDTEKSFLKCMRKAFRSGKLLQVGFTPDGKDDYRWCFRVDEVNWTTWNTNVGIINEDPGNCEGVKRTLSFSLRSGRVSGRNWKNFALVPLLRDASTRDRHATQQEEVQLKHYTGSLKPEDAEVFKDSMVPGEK
From the text: as §1

WT TRPV2 = molecular target: T3, WT TRPV2 (Rattus norvegicus, UniProt Q9WUD2); assay: Two-electrode voltage-clamp in Xenopus oocytes, WT TRPV2; type: cell-based; conditions: 100 nM RTx
T3 construct: expressed in transfected cells; host or cells: Xenopus oocytes (cRNA injection, pGEM-HE)
T3 sequence (Q9WUD2 whole entry): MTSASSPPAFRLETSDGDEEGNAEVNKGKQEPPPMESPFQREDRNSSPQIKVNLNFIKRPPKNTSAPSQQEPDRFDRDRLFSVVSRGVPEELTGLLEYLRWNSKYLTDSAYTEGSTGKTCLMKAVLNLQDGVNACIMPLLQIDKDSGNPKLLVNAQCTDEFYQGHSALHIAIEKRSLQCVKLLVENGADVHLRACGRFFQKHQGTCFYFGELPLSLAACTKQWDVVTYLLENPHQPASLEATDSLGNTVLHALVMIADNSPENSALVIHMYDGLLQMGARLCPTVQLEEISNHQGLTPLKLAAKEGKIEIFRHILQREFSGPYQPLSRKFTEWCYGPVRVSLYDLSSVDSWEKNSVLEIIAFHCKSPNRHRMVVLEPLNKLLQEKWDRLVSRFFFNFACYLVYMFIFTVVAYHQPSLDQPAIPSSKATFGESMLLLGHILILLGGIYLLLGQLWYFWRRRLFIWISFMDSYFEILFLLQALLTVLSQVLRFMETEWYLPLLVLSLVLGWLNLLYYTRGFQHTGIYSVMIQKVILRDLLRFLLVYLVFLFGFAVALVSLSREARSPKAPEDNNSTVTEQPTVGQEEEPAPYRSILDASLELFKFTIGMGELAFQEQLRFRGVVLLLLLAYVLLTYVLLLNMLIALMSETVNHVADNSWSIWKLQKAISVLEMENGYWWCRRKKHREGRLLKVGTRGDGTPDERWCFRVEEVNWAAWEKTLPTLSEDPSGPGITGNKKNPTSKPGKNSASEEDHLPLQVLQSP
From the text: as §1

TRPV2 F472S/L507M = molecular target: T4, TRPV2 F472S/L507M (Rattus norvegicus, UniProt Q9WUD2, F472S/L507M); assay: Two-electrode voltage-clamp in Xenopus oocytes, TRPV2 F472S/L507M; type: cell-based; conditions: 100 nM RTx
T4 construct: expressed in transfected cells; host or cells: Xenopus oocytes (cRNA injection)
T4 sequence (Q9WUD2 whole entry F472S/L507M): as the sequence (Q9WUD2 whole entry) above, with F472S, L507M counted along it
From the text: as §1

[3] = molecular target: T5, TRPV1 triple mutant that left S512 intact (Rattus norvegicus, UniProt O35433, E570Q/M547L/T550L); assay: Two-electrode voltage-clamp in Xenopus oocytes, TRPV1 triple mutant with S512 intact; type: cell-based; conditions: 100 nM RTx
T5 construct: expressed in transfected cells; host or cells: Xenopus oocytes (cRNA injection)
T5 sequence (O35433 whole entry M547L/T550L/E570Q): as the sequence (O35433 whole entry S512F/M547L/T550L/E570Q) above, with F512S counted along it
From the text: as §1

TRPV2 F472S/L510T = molecular target: T6, TRPV2 F472S/L510T (Rattus norvegicus, UniProt Q9WUD2, F472S/L510T); assay: Two-electrode voltage-clamp in Xenopus oocytes, TRPV2 F472S/L510T; type: cell-based; conditions: 100 nM RTx
T6 construct: expressed in transfected cells; host or cells: Xenopus oocytes (cRNA injection)
T6 sequence (Q9WUD2 whole entry F472S/L510T): as the sequence (Q9WUD2 whole entry) above, with F472S, L510T counted along it
From the text: as §1

T1 sequence (O35433 whole entry S512F/M547L): as the sequence (O35433 whole entry S512F/M547L/T550L/E570Q) above, with L550T, Q570E counted along it

With `C=C(C)[C@]12C[C@@H](C)[C@@]34O[C@](Cc5ccccc5)(O[C@@H]1[C@@H]3C=C(COC(=O)Cc1ccc(O)c(OC)c1)C[C@]1(O)C(=O)C(C)=C[C@@H]41)O2` [RTx, resiniferatoxin] the “channel activation by RTx” value (TRPV1 S512F/M547L) was “lost sensitivity”, the “channel activation by RTx” value [1] was “sensitive to RTx” and the “channel activation by RTx” value [2] was “completely lost sensitivity”. For the same molecule, the “channel activation by RTx” value (WT TRPV2) was “completely insensitive”, the “channel activation by RTx” value (TRPV2 F472S/L507M) was “sensitive to RTx” and the “channel activation by RTx” value [3] was “retained sensitivity”. The “channel activation by RTx” value (TRPV2 F472S/L510T) was “sensitive to RTx”.
